Blank lines part the entries; values can stand above or below the compound they belong to.
Assays:
[1] = molecular target: Human immunodeficiency virus type 1 protease (Human immunodeficiency virus 1, UniProt Q72874); test: Inhibition of RNA-dependent DNA polymerase activity against wild-type HIV-1 RT at a concentration of 100 uM; No inhibition
[2] = molecular target: T1, Human immunodeficiency virus type 1 reverse transcriptase (Human immunodeficiency virus 1, UniProt Q72547); test: Inhibitory activity against reverse transcriptase of HIV-1
[3] = molecular target: T1, Human immunodeficiency virus type 1 reverse transcriptase; test: Inhibitory activity against reverse transcriptase of HIV; Inactive

Compound: COc1ccc(OC)c2c(O)c(O)cnc12
Ki [1]: Not Active

Ki [2]: 490 nM
Compound: Oc1cnc2c(O)ccc(O)c2c1O

Compound: COc1cnc2c(OC)ccc(OC)c2c1O
Ki [3]: Not Active
